Experimental findings from US8697869B2, “3-(heteroaryl-amino)-1,2,3,4-tetrahydro-9H-carbazole derivatives and their use as prostaglandin D2 receptor modulators” (Actelion Pharmaceuticals Ltd., priority 2010, dated 2014) are described below.

Assay [1] deals with T1, hCRTH2 receptor (Homo sapiens (Human), UniProt Q9Y5Y4). The experiment in a line: hCRTH2 receptor membranes radioligand displacement assay (3H-PGD2). The following applies: 3H-PGD2 2.5 nM, HEK293-hCRTH2 membranes, Binding-Buffer with 0.1% BSA. The procedure:
Biological Assays: Preparation of hCRTH2 Receptor Membranes and Radioligand Displacement Assay:
(§1) First, recombinant HEK293-hCRTH2 cells were detached from culture plates into 5 ml buffer A/plate (Buffer A: 5 mM Tris, 1 mM MgCl2-6H2O pH=7.4) using a rubber policeman. Cells were then transferred into centrifugation tubes and centrifuged for 5 min at 400 g. The cell pellet was resuspended in the same buffer and tubes were frozen at −80° C. Cells were thawed and membrane fragments were generated by homogenization using a polytron homogenizer (30 seconds). The membrane fragments were then centrifuged at 3000 g for 20 minutes and resuspended in buffer C (Buffer C: 75 mM Tris, 25 mM MgCl2, 250 mM Saccharose pH 7.4). Aliquots of membrane fragements were stored at −20° C.
(§2) Binding assay was performed in a final assay volume of 250 μl. First, 25 μl of test compound, previously diluted in Binding-Buffer (Binding-Buffer: 50 mM Tris-Base, 100 mM NaCl, 1 mM EDTA, 0.1% BSA (protease free), 0.01% NaN3, 10 mM MnCl2 pH 7.0) was placed into each well. After addition of 75 μl Binding-Buffer, 50 μl of the radioligand ^3H-PGD2 (at 2.5 nM (220.000 dpm/well) from ANAWA ART0662) was added to each well. Binding assay was started by addition of 100 μl CRTH2 membrane fragments, reaching a final concentration of 20 μg/well. For non-specific binding, PGD2 was added to the reaction mixture to […] final concentration. This assay mix was incubated for 90 minutes at room temperature and then filtered through a GF/C filter 96-well plate which was pre-soaked for 3 hours in 0.5% polyethyleneimine (PEI). The filter-wells were washed three times with ice cold Binding-Buffer. Then, 40 μl of Microscint-40 (Packard) was added to each well and the retained radioactivity quantified in a Topcount (Packard).
For orientation: In a radioligand displacement assay an active substance lowers the binding of a labelled ligand.

Assay [2] deals with T1, hCRTH2 receptor. Briefly: Radioligand displacement assay in presence of human serum albumin (HSA). Conditions: 3H-PGD2 2.5 nM, Binding-Buffer with 0.5% HSA instead of 0.1% BSA. On the procedure:
as §1, §2
Radioligand Displacement Assay-Human Serum Albumin (HSA):
Radioligand displacement assay in presence of human serum albumin (HSA) was performed as described above, with following modifications. Binding-Buffer-HSA: Binding-buffer+0.5% Sigma Albumin from Human serum A1887 (instead of 0.1% BSA). A volume of 25 μl test compound, previously diluted in Binding-Buffer-HSA was placed into each well. After addition of 75 μl Binding-Buffer-HSA, 50 μl of ^3H-PGD2 (at 2.5 nM (220.000 dpm/well) from ANAWA ART0662) was added to each well. Remaining protocol was identical as described above.

T1 sequence (Q9Y5Y4 whole entry): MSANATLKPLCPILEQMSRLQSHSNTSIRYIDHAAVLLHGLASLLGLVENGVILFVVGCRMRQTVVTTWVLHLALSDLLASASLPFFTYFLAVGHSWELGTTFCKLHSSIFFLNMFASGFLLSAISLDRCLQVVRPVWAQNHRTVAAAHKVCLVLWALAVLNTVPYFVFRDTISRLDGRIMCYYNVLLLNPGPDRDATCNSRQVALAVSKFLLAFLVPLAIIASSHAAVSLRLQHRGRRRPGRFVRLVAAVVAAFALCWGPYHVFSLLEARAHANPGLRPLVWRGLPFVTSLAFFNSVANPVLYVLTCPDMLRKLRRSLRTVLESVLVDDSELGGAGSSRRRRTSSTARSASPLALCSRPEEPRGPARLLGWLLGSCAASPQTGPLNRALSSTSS

As a reminder, the IC50 is the midpoint of a concentration-inhibition curve. Take `CN(c1nc(C(F)(F)F)cs1)C1CCc2c(c3cc(F)ccc3n2CC(=O)O)C1` (stereo not drawn) [Example 47, 2-(6-fluoro-3-(methyl(4-(trifluoromethyl)thiazol-2-yl)amino)-3,4-dihydro-1H-carbazol-9(2H)-yl)acetic acid]: the figures for the IC50 at hCRTH2 receptor [1] and at hCRTH2 receptor [2] were 0.014 µM and 0.402 µM, respectively.

Regarding `CN(c1ccon1)C1CCc2c(c3cc(F)ccc3n2CC(=O)O)C1` (stereo not drawn) [Example 51, 2-(6-fluoro-3-(isoxazol-3-yl(methyl)amino)-3,4-dihydro-1H-carbazol-9(2H)-yl)acetic acid], the IC50 at hCRTH2 receptor [1] was found to be 0.0064 µM; on hCRTH2 receptor [2], 0.053 µM.

Turning to `Cc1cc(N(C)C2CCc3c(c4cc(F)ccc4n3CC(=O)O)C2)no1` (stereo not drawn) [Example 52, 2-(6-fluoro-3-(methyl(5-methylisoxazol-3-yl)amino)-3,4-dihydro-1H-carbazol-9(2H)-yl)acetic acid], the IC50 at hCRTH2 receptor [1] stood at 0.0074 µM; at hCRTH2 receptor [2], 0.058 µM.

As to `CN(c1ncc(Cl)cn1)C1CCc2c(c3ccccc3n2CC(=O)O)C1` (stereo not drawn) [Example 53, 2-(3-((5-chloropyrimidin-2-yl)(methyl)amino)-3,4-dihydro-1H-carbazol-9(2H)-yl)acetic acid], the IC50 on hCRTH2 receptor [1] was found to be 0.0051 µM; on hCRTH2 receptor [2], 0.016 µM.

For the molecule `CN(c1ncc(Cl)cn1)C1CCc2c(c3cc(Cl)ccc3n2CC(=O)O)C1` (stereo not drawn) [Example 54, 2-(6-chloro-3-((5-chloropyrimidin-2-yl)(methyl)amino)-3,4-dihydro-1H-carbazol-9(2H)-yl)acetic acid], the values for the IC50 at hCRTH2 receptor [1] and on hCRTH2 receptor [2] were 0.002 µM and 0.003 µM, respectively.

As for `Cc1ccc2c(c1)c1c(n2CC(=O)O)CCC(N(C)c2ncc(Cl)cn2)C1` (stereo not drawn) [Example 55, 2-(3-((5-chloropyrimidin-2-yl)(methyl)amino)-6-methyl-3,4-dihydro-1H-carbazol-9(2H)-yl)acetic acid], the results for the IC50 at hCRTH2 receptor [1] and at hCRTH2 receptor [2] were 0.0055 µM and 0.04 µM, respectively.

Regarding `CN(c1ncc(Cl)cn1)C1CCc2c(c3cc(OC(F)(F)F)ccc3n2CC(=O)O)C1` (stereo not drawn) [Example 56, 2-(3-((5-chloropyrimidin-2-yl)(methyl)amino)-6-(trifluoromethoxy)-3,4-dihydro-1H-carbazol-9(2H)-yl)acetic acid], the values for the IC50 on hCRTH2 receptor [1] and at hCRTH2 receptor [2] were 0.0088 µM and 0.303 µM, respectively.

For the molecule `COc1ccc2c(c1)c1c(n2CC(=O)O)CCC(N(C)c2ncc(Cl)cn2)C1` (stereo not drawn) [Example 57, 2-(3-((5-chloropyrimidin-2-yl)(methyl)amino)-6-methoxy-3,4-dihydro-1H-carbazol-9(2H)-yl)acetic acid], the IC50 at hCRTH2 receptor [1] was determined as 0.0046 µM; at hCRTH2 receptor [2], 0.056 µM.

In the case of `CN(c1ncc(Cl)cn1)C1CCc2c(c3cc(C(F)(F)F)ccc3n2CC(=O)O)C1` (stereo not drawn) [Example 58, 2-(3-((5-chloropyrimidin-2-yl)(methyl)amino)-6-(trifluoromethyl)-3,4-dihydro-1H-carbazol-9(2H)-yl)acetic acid], the IC50 on hCRTH2 receptor [1] was 0.0035 µM; at hCRTH2 receptor [2], 0.015 µM.
